Results as given in patent US8106055B2, “Substituted amide compounds” (Gruenenthal GmbH, priority 2007, dated 2012).

How the values were obtained:
[1] = biological target: T1, bradykinin 1 receptor (B1R) of the rat (Rattus norvegicus, UniProt P97583); assay: Functional investigation on the rat bradykinin 1 receptor (B1R), Ca2+ FLIPR assay in CHO K1 rB1R cells; assay type: cell-based; settings: B1R antagonism rat; test substance 10 μM; Ca2+ FLIPR, CHO K1 rB1R cells
T1 construct: expressed in transfected cells; host or cells: CHO K1 cells
T1 sequence (P97583 1-337): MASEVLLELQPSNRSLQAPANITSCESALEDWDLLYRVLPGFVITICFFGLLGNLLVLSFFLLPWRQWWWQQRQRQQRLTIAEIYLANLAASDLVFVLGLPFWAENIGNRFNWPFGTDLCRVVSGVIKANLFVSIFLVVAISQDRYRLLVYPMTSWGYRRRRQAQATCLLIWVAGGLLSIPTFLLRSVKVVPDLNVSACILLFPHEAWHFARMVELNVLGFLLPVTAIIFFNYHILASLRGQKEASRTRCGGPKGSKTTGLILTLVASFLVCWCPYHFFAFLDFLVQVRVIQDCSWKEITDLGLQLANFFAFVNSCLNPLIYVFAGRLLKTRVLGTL
Summary of the method: (§1)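 Fluo-4 Ca2+ readout, peak fluorescence. Stable CHO K1 transfectants; compound pre-incubated 10-20 min, then EC80 agonist—Lys-Des-Arg9-BK for hB1R, Des-Arg9-BK for rB1R. % inhibition vs maximal inhibition; IC50 from multiple concentrations, duplicate/triplicate, ≥2 independent runs.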

[2] = biological target: T2, human bradykinin 1 receptor (B1R) (Homo sapiens, UniProt P46663); assay: Functional investigation on the human bradykinin 1 receptor (B1R), Ca2+ FLIPR assay in CHO K1 hB1R cells; assay type: cell-based; settings: B1R antagonism human; test substance 10 μM; Ca2+ FLIPR, CHO K1 hB1R cells
T2 construct: expressed in transfected cells; host or cells: CHO K1 cells
T2 sequence (P46663 1-353): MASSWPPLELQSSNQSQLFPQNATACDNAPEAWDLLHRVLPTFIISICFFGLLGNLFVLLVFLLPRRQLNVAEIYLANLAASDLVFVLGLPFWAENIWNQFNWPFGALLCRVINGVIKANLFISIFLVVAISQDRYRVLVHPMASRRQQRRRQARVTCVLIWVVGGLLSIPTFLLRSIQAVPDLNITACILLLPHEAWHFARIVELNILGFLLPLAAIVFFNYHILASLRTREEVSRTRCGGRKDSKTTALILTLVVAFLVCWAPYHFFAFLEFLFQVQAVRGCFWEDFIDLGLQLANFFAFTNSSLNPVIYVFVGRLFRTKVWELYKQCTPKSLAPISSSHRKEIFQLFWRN
Summary of the method: as §1

SMILES	B1R Ant. r [10 μM] % Inhibition [1]	B1R Ant. h [10 μM] % Inhibition [2]
CN(C)C(c1cccc(F)c1)C1CCC(CCNC(=O)COCCN(Cc2ccccc2)S(=O)(=O)c2ccccc2)CC1 (stereo not drawn) [Example 278]	7%	16%
COc1cc(C)c(S(=O)(=O)N2CCCC(OCC(=O)NC3CCC(C(c4cccc(F)c4)N(C)C)CC3)C2)c(C)c1C (stereo not drawn) [Example 279]	7%	23%
COc1ccc(S(=O)(=O)N2CCCCC2COCC(=O)NCC2CCC(C(c3ccc(Cl)cc3)N(C)C)CC2)c(OC)c1 (stereo not drawn) [Example 280]	36%	51%
COc1ccc(S(=O)(=O)N2CCCCC2COCC(=O)NCCC2CCC(C(c3cccc(F)c3)N(C)C)CC2)c(OC)c1 (stereo not drawn) [Example 281]	18%	0%
CN(C)C(c1cccs1)C1CCC(NC(=O)COCCN(C)S(=O)(=O)c2ccc(OC(F)(F)F)cc2)CC1 (stereo not drawn) [Example 282]	20%	−31%
CN(C)C(c1cccc(F)c1)C1CCC(NC(=O)COC2CCN(S(=O)(=O)c3ccc(Cl)cc3Cl)C2)CC1 (stereo not drawn) [Example 283]	24%	50%
CN(C)C(c1ccc(Cl)cc1)C1CCC(CNC(=O)COCCN(C)S(=O)(=O)c2ccc(Cl)cc2)CC1 (stereo not drawn) [Example 284]	32%	48%
CN(C)C(c1ccc(F)cc1)C1CCC(CCNC(=O)COCCN(C)S(=O)(=O)c2c(Cl)cccc2Cl)CC1 (stereo not drawn) [Example 285]	75%	97%
COc1cc(C)c(S(=O)(=O)N2CCC(OCC(=O)NC3CCC(C(c4cccc(F)c4)N(C)C)CC3)CC2)c(C)c1C (stereo not drawn) [Example 286]	−2%	37%
COc1cc(C)c(S(=O)(=O)N2CCC(OCC(=O)NCC3CCC(C(c4cccc(F)c4)N(C)C)CC3)CC2)c(C)c1C (stereo not drawn) [Example 287]	−1%	1%
COc1ccc(S(=O)(=O)N2Cc3ccccc3CC2COCC(=O)NCC2CCC(C(c3ccc(F)cc3)N(C)C)CC2)cc1 (stereo not drawn) [Example 288]	20%	62%
CN(C)C(c1ccc(Cl)cc1)C1CCC(CCNC(=O)COCCN(C)S(=O)(=O)c2cccc(C(F)(F)F)c2)CC1 (stereo not drawn) [Example 289]	13%	51%
CN(C)C(c1ccc(F)cc1)C1CCC(NC(=O)COC2CCN(S(=O)(=O)c3ccc(Cl)cc3Cl)C2)CC1 (stereo not drawn) [Example 290]	37%	37%
CN(C)C(c1ccc(Cl)cc1)C1CCC(CCNC(=O)COCCN(C)S(=O)(=O)c2ccc(Cl)cc2Cl)CC1 (stereo not drawn) [Example 291]	36%	105%
COc1ccc(S(=O)(=O)N(C)CCOCC(=O)NCCC2CCC(C(c3cccc(F)c3)N(C)C)CC2)cc1 (stereo not drawn) [Example 292]	34%	20%
COc1ccc(S(=O)(=O)N(C)CCOCC(=O)NCCC2CCC(C(c3cccc(F)c3)N(C)C)CC2)cc1OC (stereo not drawn) [Example 293]	2%	−7%
CN(C)C(c1ccc(Cl)cc1)C1CCC(CNC(=O)COCC2CCCN(S(=O)(=O)c3ccccc3)C2)CC1 (stereo not drawn) [Example 294]	32%	−3%
CN(C)C(c1cccc(F)c1)C1CCC(CCNC(=O)COCC2CCCN(S(=O)(=O)c3ccccc3)C2)CC1 (stereo not drawn) [Example 295]	44%	7%

SMILES	B1R Ant. r [10 μM] % Inhibition [1]	B1R Ant. h [10 μM] % Inhibition [2]
CN(C)C(c1cccc(F)c1)C1CCC(CNC(=O)COCCN(Cc2ccccc2)S(=O)(=O)c2ccccc2)CC1 (stereo not drawn) [Example 296]	24%	−1%
CN(C)C(c1cccc(F)c1)C1CCC(NC(=O)COCCN(C)S(=O)(=O)c2cccc(C(F)(F)F)c2)CC1 (stereo not drawn) [Example 297]	16%	15%
COc1cc(C)c(S(=O)(=O)N(C)CCOCC(=O)NCC2CCC(C(c3ccc(Cl)cc3)N(C)C)CC2)c(C)c1C (stereo not drawn) [Example 298]	14%	103%
CN(C)C(c1ccc(Cl)cc1)C1CCC(CNC(=O)COC2CCN(S(=O)(=O)c3ccccc3)C2)CC1 (stereo not drawn) [Example 299]	−13%	−15%
CN(C)C(c1ccccc1)C1CCC(CNC(=O)COC2CCN(S(=O)(=O)c3ccccc3)CC2)CC1 (stereo not drawn) [Example 300]	7%	−35%
CN(C)C(c1ccc(Cl)cc1)C1CCC(CNC(=O)COC2CCCN(S(=O)(=O)c3ccccc3)C2)CC1 (stereo not drawn) [Example 301]	18%	2%
CN(C)C(c1cccc(F)c1)C1CCC(CNC(=O)COCCN(C)S(=O)(=O)c2cccc(C(F)(F)F)c2)CC1 (stereo not drawn) [Example 302]	0%	38%
CN(C)C(c1cccc(F)c1)C1CCC(CNC(=O)COCCN(C)S(=O)(=O)c2ccc(OC(F)(F)F)cc2)CC1 (stereo not drawn) [Example 303]	29%	−19%
Cc1ccc(S(=O)(=O)N2CCC(OCC(=O)NCC3CCC(C(c4ccc(Cl)cc4)N(C)C)CC3)C2)cc1 (stereo not drawn) [Example 304]	19%	22%
Cc1ccc(S(=O)(=O)N2CCC(OCC(=O)NCCC3CCC(C(c4ccc(Cl)cc4)N(C)C)CC3)C2)cc1 (stereo not drawn) [Example 305]	29%	30%
Cc1ccc(S(=O)(=O)N(C)CCOCC(=O)NCCC2CCC(C(c3ccc(Cl)cc3)N(C)C)CC2)cc1 (stereo not drawn) [Example 306]	14%	38%
COc1cc(C)c(S(=O)(=O)N2CCC(OCC(=O)NCCC3CCC(C(c4cccc(F)c4)N(C)C)CC3)C2)c(C)c1 (stereo not drawn) [Example 307]	94%	105%
CN(C)C(c1cccc(F)c1)C1CCC(CNC(=O)COCCN2CCN(S(=O)(=O)c3ccccc3)CC2)CC1 (stereo not drawn) [Example 308]	17%	−1%
CN(C)C(c1cccc(F)c1)C1CCC(CNC(=O)COC2CCCN(S(=O)(=O)c3ccccc3)C2)CC1 (stereo not drawn) [Example 309]	−2%	−4%
CCN(CCOCC(=O)NCC1CCC(C(c2ccc(Cl)cc2)N(C)C)CC1)S(=O)(=O)c1c(C)cc(OC)c(C)c1C (stereo not drawn) [Example 310]	33%	89%
COc1ccc(S(=O)(=O)N2CCCCC2COCC(=O)NCCC2CCC(C(c3ccc(Cl)cc3)N(C)C)CC2)cc1 (stereo not drawn) [Example 311]	64%	69%
COc1ccc(S(=O)(=O)N2CCCCC2CCOCC(=O)NCC2CCC(C(c3ccc(Cl)cc3)N(C)C)CC2)cc1 (stereo not drawn) [Example 312]	31%	71%
COc1ccc(S(=O)(=O)N2CCCC2COCC(=O)NCC2CCC(C(c3cccc(F)c3)N(C)C)CC2)cc1 (stereo not drawn) [Example 313]	31%	34%
